{
  "source": "paper PMC5218480",
  "about": "(PLoS ONE, 2017)",
  "system": "MV-4-11 cells",
  "test": "Gene expression microarray analysis (Affymetrix PrimeView) and GSEA",
  "type": "cell-based, human",
  "design": "RFU PODN (11730768_x_at) / Fold change /veh PODN (11730768_x_at) / RFU LINC00158 (11744669_a_at) / Fold change /veh LINC00158 (11744669_a_at) / RFU DUSP10 (11751237_a_at) / Fold change /veh DUSP10 (11751237_a_at) / RFU ID3 (11757404_x_at) / Fold change /veh ID3 (11757404_x_at) / RFU PLEKHG5 (11737974_s_at) / Fold change /veh PLEKHG5 (11737974_s_at) / RFU LRRC4B (11730491_at) / Fold change /veh LRRC4B (11730491_at) / RFU GIMAP4 (11747438_a_at) / Fold change /veh GIMAP4 (11747438_a_at) / RFU KRT8 (11758183_x_at) / Fold change /veh KRT8 (11758183_x_at) / RFU CNN1 (11734310_a_at) / Fold change /veh CNN1 (11734310_a_at) / RFU VPS37D (11726825_at) / Fold change /veh VPS37D (11726825_at) / RFU C10orf10 (11716522_x_at) / Fold change /veh C10orf10 (11716522_x_at) / RFU KIR2DL2 /// KIR2DL4 /// KIR2DL5A /// KIR2DL5B /// KIR2DS1 /// KIR2DS2 /// KIR2DS3 /// KIR2DS4 /// KIR3DL3 /// KIR3DL3 /// KIR3DS1 (11738374_at) / Fold change /veh KIR2DL2 /// KIR2DL4 /// KIR2DL5A /// KIR2DL5B /// KIR2DS1 /// KIR2DS2 /// KIR2DS3 /// KIR2DS4 /// KIR3DL3 /// KIR3DL3 /// KIR3DS1 (11738374_at) / RFU C1QL1 (11718748_at) / Fold change /veh C1QL1 (11718748_at) / RFU TMPRSS4 (11747572_a_at) / Fold change /veh TMPRSS4 (11747572_a_at) / RFU HAMP (11756126_x_at) / Fold change /veh HAMP (11756126_x_at) / RFU RNFT2 (11725882_a_at) / Fold change /veh RNFT2 (11725882_a_at) / RFU NR4A2 (11747474_a_at) / Fold change /veh NR4A2 (11747474_a_at) / RFU ABCC12 (11746883_a_at) / Fold change /veh ABCC12 (11746883_a_at) / RFU TMEM136 (11760407_x_at) / Fold change /veh TMEM136 (11760407_x_at) / RFU CLDN22 /// WWC2 (11732394_at) / Fold change /veh CLDN22 /// WWC2 (11732394_at) / RFU HLA-DPB1 (11760878_x_at) / Fold change /veh HLA-DPB1 (11760878_x_at) / RFU SPINT1 (11716480_a_at) / Fold change /veh SPINT1 (11716480_a_at) / RFU GAP43 (11754022_s_at) / Fold change /veh GAP43 (11754022_s_at) / RFU A4GNT (11735810_at) / Fold change /veh A4GNT (11735810_at) / RFU PRB3 (11715151_x_at) / Fold change /veh PRB3 (11715151_x_at) / RFU TUBB4B (11761932_at) / Fold change /veh TUBB4B (11761932_at) / RFU CAPN14 (11732068_a_at) / Fold change /veh CAPN14 (11732068_a_at) / RFU TMCC2 (11721928_a_at) / Fold change /veh TMCC2 (11721928_a_at) / RFU IRGQ (11745062_a_at) / Fold change /veh IRGQ (11745062_a_at) / RFU FAM174B (11720279_a_at) / Fold change /veh FAM174B (11720279_a_at) / RFU TMPRSS4 (11748680_a_at) / Fold change /veh TMPRSS4 (11748680_a_at) / RFU FAM212B (11763350_a_at) / Fold change /veh FAM212B (11763350_a_at) / RFU PLEKHG5 (11743358_a_at) / Fold change /veh PLEKHG5 (11743358_a_at) / RFU ZSCAN30 (11745921_a_at) / Fold change /veh ZSCAN30 (11745921_a_at) / RFU CMKLR1 (11741424_a_at) / Fold change /veh CMKLR1 (11741424_a_at) / RFU LOC101060620 /// MAPK8IP1 (11723275_at) / Fold change /veh LOC101060620 /// MAPK8IP1 (11723275_at) / RFU SPTSSB (11747773_x_at) / Fold change /veh SPTSSB (11747773_x_at) / RFU PRSS12 (11739890_at) / Fold change /veh PRSS12 (11739890_at) / RFU BIN1 (11741810_x_at) / Fold change /veh BIN1 (11741810_x_at) / RFU WNT11 (11732464_a_at) / Fold change /veh WNT11 (11732464_a_at) / RFU C10orf10 (11716521_a_at) / Fold change /veh C10orf10 (11716521_a_at) / RFU C5orf56 (11738089_at) / Fold change /veh C5orf56 (11738089_at) / RFU CYB561 (11721691_x_at) / Fold change /veh CYB561 (11721691_x_at) / RFU ANKRD19P (11752326_a_at) / Fold change /veh ANKRD19P (11752326_a_at) / RFU OR2T12 /// OR2T33 /// OR2T8 (11738714_s_at) / Fold change /veh OR2T12 /// OR2T33 /// OR2T8 (11738714_s_at) / RFU VCAN (11748164_a_at) / Fold change /veh VCAN (11748164_a_at) / RFU JSRP1 (11732532_at) / Fold change /veh JSRP1 (11732532_at) / RFU KRTAP10-11 (11738290_x_at) / Fold change /veh KRTAP10-11 (11738290_x_at) / RFU MYO3A (11730013_a_at) / Fold change /veh MYO3A (11730013_a_at) / RFU EBF3 (11725865_a_at) / Fold change /veh EBF3 (11725865_a_at) / RFU CAMK2N1 (11719241_x_at) / Fold change /veh CAMK2N1 (11719241_x_at) / RFU C5orf56 (11738088_a_at) / Fold change /veh C5orf56 (11738088_a_at) / RFU OLFML3 (11715873_a_at) / Fold change /veh OLFML3 (11715873_a_at) / RFU LOC100653217 /// NTM (11731650_a_at) / Fold change /veh LOC100653217 /// NTM (11731650_a_at) / RFU MAPK11 (11762145_a_at) / Fold change /veh MAPK11 (11762145_a_at) / RFU FIZ1 (11724087_x_at) / Fold change /veh FIZ1 (11724087_x_at) / RFU OASL (11726364_x_at) / Fold change /veh OASL (11726364_x_at) / RFU SOX15 (11748057_x_at) / Fold change /veh SOX15 (11748057_x_at) / RFU CD79A (11719716_a_at) / Fold change /veh CD79A (11719716_a_at) / RFU HIST1H1D (11736915_at) / Fold change /veh HIST1H1D (11736915_at) / RFU CASKIN2 (11723855_a_at) / Fold change /veh CASKIN2 (11723855_a_at) / RFU LOC730098 (11760151_x_at) / Fold change /veh LOC730098 (11760151_x_at) / RFU OR4N2 (11742367_at) / Fold change /veh OR4N2 (11742367_at) / RFU PRRT2 (11749266_a_at) / Fold change /veh PRRT2 (11749266_a_at) / RFU SNX32 (11753110_a_at) / Fold change /veh SNX32 (11753110_a_at) / RFU CDHR5 (11726645_a_at) / Fold change /veh CDHR5 (11726645_a_at) / RFU RCAN1 (11760418_a_at) / Fold change /veh RCAN1 (11760418_a_at) / RFU FAM167A (11723789_a_at) / Fold change /veh FAM167A (11723789_a_at) / RFU FAM26E (11764081_at) / Fold change /veh FAM26E (11764081_at) / RFU ISYNA1 (11749810_s_at) / Fold change /veh ISYNA1 (11749810_s_at) / RFU ACY1 (11761880_at) / Fold change /veh ACY1 (11761880_at) / RFU 11764098_at / Fold change /veh 11764098_at / RFU SAMD14 (11745864_x_at) / Fold change /veh SAMD14 (11745864_x_at) / RFU NPB (11741838_a_at) / Fold change /veh NPB (11741838_a_at) / RFU TMPRSS6 (11731388_a_at) / Fold change /veh TMPRSS6 (11731388_a_at) / RFU KRTAP10-2 (11738614_at) / Fold change /veh KRTAP10-2 (11738614_at) / RFU ARHGAP8 /// PRR5-ARHGAP8 (11727945_x_at) / Fold change /veh ARHGAP8 /// PRR5-ARHGAP8 (11727945_x_at) / RFU KRTAP5-7 /// NADSYN1 (11734609_at) / Fold change /veh KRTAP5-7 /// NADSYN1 (11734609_at) / RFU RASL12 (11751679_a_at) / Fold change /veh RASL12 (11751679_a_at) / RFU CDKN2B (11736163_a_at) / Fold change /veh CDKN2B (11736163_a_at) / RFU PRF1 (11729649_at) / Fold change /veh PRF1 (11729649_at) / RFU, ZNF638 /// ZNF638-IT1 / Fold change vs veh, ZNF638 /// ZNF638-IT1 / RFU, PANK3 / Fold change vs veh, PANK3 / RFU, SH3YL1 / Fold change vs veh, SH3YL1 / RFU, ZEB2 / Fold change vs veh, ZEB2 / RFU, NRIP1 / Fold change vs veh, NRIP1 / RFU, PTTG1IP / Fold change vs veh, PTTG1IP / RFU, CAPN2 / Fold change vs veh, CAPN2 / RFU, MED14 / Fold change vs veh, MED14 / RFU, SNORA58 / Fold change vs veh, SNORA58 / RFU, C1orf63 / Fold change vs veh, C1orf63 / RFU, LRRFIP1 / Fold change vs veh, LRRFIP1 / RFU, NDUFAF7 / Fold change vs veh, NDUFAF7 / RFU, SLC12A2 / Fold change vs veh, SLC12A2 / RFU, IBTK / Fold change vs veh, IBTK / RFU, ESF1 / Fold change vs veh, ESF1 / Fold change vs veh, TMEM50B / RFU, TAOK1 / Fold change vs veh, TAOK1 / RFU, ACBD3 / Fold change vs veh, ACBD3 / RFU, TMA16 / Fold change vs veh, TMA16 / RFU, RWDD3 / Fold change vs veh, RWDD3 / RFU, BCAT1 / Fold change vs veh, BCAT1 / RFU, EDEM3 / Fold change vs veh, EDEM3 / RFU, TMEM33 / Fold change vs veh, TMEM33 / RFU, WDR75 / Fold change vs veh, WDR75 / RFU, AHCTF1 / Fold change vs veh, AHCTF1 / RFU, TFRC / Fold change vs veh, TFRC / RFU, ZDHHC17 / Fold change vs veh, ZDHHC17 / RFU, NOM1 / Fold change vs veh, NOM1 / RFU, ARL8B / Fold change vs veh, ARL8B / RFU, ZBTB11 / Fold change vs veh, ZBTB11 / RFU, TAMM41 / Fold change vs veh, TAMM41 / RFU, KIAA1704 /// LOC100996395 / Fold change vs veh, KIAA1704 /// LOC100996395 / RFU, ING1 / Fold change vs veh, ING1 / RFU, TRMT61B / Fold change vs veh, TRMT61B / RFU, FUBP3 / Fold change vs veh, FUBP3 / RFU, TP53 / Fold change vs veh, TP53 / RFU, TNKS2 / Fold change vs veh, TNKS2 / RFU, ZFP14 / Fold change vs veh, ZFP14 / RFU, ACTR2 / Fold change vs veh, ACTR2 / RFU, PPP3R1 / Fold change vs veh, PPP3R1 / RFU, PIK3R1 / Fold change vs veh, PIK3R1 / RFU, HNRNPA1 / Fold change vs veh, HNRNPA1 / RFU, RNF170 / Fold change vs veh, RNF170 / RFU, ZNF28 / Fold change vs veh, ZNF28 / RFU, RNGTT / Fold change vs veh, RNGTT / RFU, OGT / Fold change vs veh, OGT / RFU, BRD1 / Fold change vs veh, BRD1 / RFU, MARS / Fold change vs veh, MARS / RFU, ZNF655 / Fold change vs veh, ZNF655 / RFU, FAHD1 / Fold change vs veh, FAHD1 / RFU, BDP1 / Fold change vs veh, BDP1 / RFU, LRRCC1 / Fold change vs veh, LRRCC1 / RFU, ARID1A / Fold change vs veh, ARID1A / RFU, ZNF146 / Fold change vs veh, ZNF146 / RFU, ZNF330 / Fold change vs veh, ZNF330 / RFU, GPN3 / Fold change vs veh, GPN3 / RFU, C9orf123 / Fold change vs veh, C9orf123 / RFU, N4BP2L2 / Fold change vs veh, N4BP2L2 / RFU, ARFIP1 / Fold change vs veh, ARFIP1 / RFU, FAM179B / Fold change vs veh, FAM179B / RFU, BCL10 / Fold change vs veh, BCL10 / RFU, UHRF1BP1L / Fold change vs veh, UHRF1BP1L / RFU, BET1 / Fold change vs veh, BET1 / RFU, CNOT2 / Fold change vs veh, CNOT2 / RFU, ZNF268 / Fold change vs veh, ZNF268 / Fold change vs veh, ZNF507 / RFU, DGCR2 / Fold change vs veh, DGCR2 / RFU, WDSUB1 / Fold change vs veh, WDSUB1 / Fold change vs veh, HSP90B1 /// MIR3652 / RFU, ADSS / Fold change vs veh, ADSS / RFU, GK / Fold change vs veh, GK / RFU, ZNF148 / Fold change vs veh, ZNF148 / RFU, TAF9 / Fold change vs veh, TAF9 / RFU, SLC1A5 / Fold change vs veh, SLC1A5 / RFU, SLMO2 / Fold change vs veh, SLMO2 / RFU, ABCC4 / Fold change vs veh, ABCC4 / RFU, LOC101060439 /// RAP1B / Fold change vs veh, LOC101060439 /// RAP1B / RFU, RFX7 / Fold change vs veh, RFX7 / RFU, GTPBP10 / Fold change vs veh, GTPBP10 / RFU, CNEP1R1 / Fold change vs veh, CNEP1R1 / RFU, BIVM-ERCC5 /// ERCC5 / Fold change vs veh, BIVM-ERCC5 /// ERCC5 / RFU, ILF3 / Fold change vs veh, ILF3 / RFU 11762660_at / Fold change /veh 11762660_at / RFU VCAN (11757783_s_at) / Fold change /veh VCAN (11757783_s_at) / RFU DDX43 (11728927_at) / Fold change /veh DDX43 (11728927_at) / RFU KRT8 (11758188_x_at) / Fold change /veh KRT8 (11758188_x_at) / RFU NKD1 (11759106_at) / Fold change /veh NKD1 (11759106_at) / RFU SRD5A1 (11742802_a_at) / Fold change /veh SRD5A1 (11742802_a_at) / RFU TPSAB1 /// TPSB2 (11721975_s_at) / Fold change /veh TPSAB1 /// TPSB2 (11721975_s_at) / RFU GSTM3 (11746129_a_at) / Fold change /veh GSTM3 (11746129_a_at) / RFU IL23R (11737362_x_at) / Fold change /veh IL23R (11737362_x_at) / RFU TMEM51 (11727254_a_at) / Fold change /veh TMEM51 (11727254_a_at) / RFU PIWIL2 (11732686_x_at) / Fold change /veh PIWIL2 (11732686_x_at) / RFU ORM1 (11744905_x_at) / Fold change /veh ORM1 (11744905_x_at) / RFU CCDC152 (11743942_at) / Fold change /veh CCDC152 (11743942_at) / RFU ECM1 (11717891_a_at) / Fold change /veh ECM1 (11717891_a_at) / RFU IL23R (11748794_a_at) / Fold change /veh IL23R (11748794_a_at) / RFU TNFAIP8L3 (11732012_x_at) / Fold change /veh TNFAIP8L3 (11732012_x_at) / RFU MBOAT4 (11741988_at) / Fold change /veh MBOAT4 (11741988_at) / RFU 11764193_at / Fold change /veh 11764193_at / RFU TMEM53 (11763286_at) / Fold change /veh TMEM53 (11763286_at) / RFU MAGEB2 (11727129_at) / Fold change /veh MAGEB2 (11727129_at) / RFU TMEM200A (11744735_a_at) / Fold change /veh TMEM200A (11744735_a_at) / RFU CCDC152 (11751479_a_at) / Fold change /veh CCDC152 (11751479_a_at) / RFU FAM211A (11726209_a_at) / Fold change /veh FAM211A (11726209_a_at) / RFU RGS16 (11746705_a_at) / Fold change /veh RGS16 (11746705_a_at) / RFU VCAN (11755009_s_at) / Fold change /veh VCAN (11755009_s_at) / RFU RHOB (11743442_s_at) / Fold change /veh RHOB (11743442_s_at) / RFU RGS16 (11720943_a_at) / Fold change /veh RGS16 (11720943_a_at) / RFU RGS16 (11720944_at) / Fold change /veh RGS16 (11720944_at) / RFU, VPS4B / Fold change vs veh, VPS4B / RFU, CREB1 / Fold change vs veh, CREB1 / RFU, DNAJC13 / Fold change vs veh, DNAJC13 / RFU, GNAQ / Fold change vs veh, GNAQ / RFU, CDK5R1 / Fold change vs veh, CDK5R1 / RFU, ZRANB3 / Fold change vs veh, ZRANB3 / RFU, CUL4A / Fold change vs veh, CUL4A / RFU, CCNY / Fold change vs veh, CCNY / RFU, UFL1 / Fold change vs veh, UFL1 / RFU, COG3 / Fold change vs veh, COG3 / RFU, DIAPH2 / Fold change vs veh, DIAPH2 / RFU, SKA2 / Fold change vs veh, SKA2 / RFU, AFF3 / Fold change vs veh, AFF3 / RFU, LMF1 / Fold change vs veh, LMF1 / RFU, IPO11 / Fold change vs veh, IPO11 / RFU, DFFB / Fold change vs veh, DFFB / RFU, FOXP1 / Fold change vs veh, FOXP1 / RFU, CARD8 / Fold change vs veh, CARD8 / RFU, STRN3 / Fold change vs veh, STRN3 / RFU, ADK / Fold change vs veh, ADK / RFU, RASSF2 / Fold change vs veh, RASSF2 / RFU, WIPF1 / Fold change vs veh, WIPF1 / RFU, LARP1B / Fold change vs veh, LARP1B / RFU, RASA1 / Fold change vs veh, RASA1 / RFU, RB1 / Fold change vs veh, RB1 / RFU, PPFIA1 / Fold change vs veh, PPFIA1 / RFU, MAT2A / Fold change vs veh, MAT2A / RFU, CCT5 / Fold change vs veh, CCT5 / RFU, WDR92 / Fold change vs veh, WDR92 / RFU, CUX1 / Fold change vs veh, CUX1 / RFU, TTC7A / Fold change vs veh, TTC7A / RFU, TMEM135 / Fold change vs veh, TMEM135 / RFU, DEPTOR / Fold change vs veh, DEPTOR / RFU, CPM / Fold change vs veh, CPM / RFU, DNAJB6 / Fold change vs veh, DNAJB6 / RFU, CACNA2D3 / Fold change vs veh, CACNA2D3 / RFU, DTX4 / Fold change vs veh, DTX4 / RFU, TFCP2 / Fold change vs veh, TFCP2 / RFU, GMCL1 /// GMCL1P1 / Fold change vs veh, GMCL1 /// GMCL1P1 / RFU, AEBP2 / Fold change vs veh, AEBP2 / RFU, SNHG1 /// SNORD22 /// SNORD25 /// SNORD26 /// SNORD27 /// SNORD28 /// SNORD29 /// SNORD31 / Fold change vs veh, SNHG1 /// SNORD22 /// SNORD25 /// SNORD26 /// SNORD27 /// SNORD28 /// SNORD29 /// SNORD31 / Fold change (Aza/veh), C12orf56 (ProbeSet 11735607_a_at) / Fold change (ACY-1035/veh), C12orf56 (ProbeSet 11735607_a_at) / Fold change (Aza/veh), FGFR1OP (ProbeSet 11751329_s_at) / Fold change (ACY-1035/veh), FGFR1OP (ProbeSet 11751329_s_at) / Fold change (Aza/veh), VPS36 (ProbeSet 11739960_a_at) / Fold change (ACY-1035/veh), VPS36 (ProbeSet 11739960_a_at) / RFU SYPL1 (11715823_x_at) / Fold change /veh SYPL1 (11715823_x_at) / RFU IGFBP7 (11715501_s_at) / Fold change /veh IGFBP7 (11715501_s_at) / RFU REEP3 (11722064_at) / Fold change /veh REEP3 (11722064_at) / RFU IGLL1 (11728026_x_at) / Fold change /veh IGLL1 (11728026_x_at): dose or concentration left out as unconfirmed",
  "settings": "ProbeSet 11719185_x_at; LIST B",
  "data": [
    {"smiles": "Nc1ncn([C@@H]2O[C@H](CO)[C@@H](O)[C@H]2O)c(=O)n1", "note": "[azacitidine]", "values": [
      {"measurement": "Fold change vs veh, N4BP2L2", "result": 0.90}
    ]}
  ]
}
